Holding throughout (assay): inhibition of tumour cell growth, NCI panel, 48 h
In assay [1] the test system is ACHN renal.
Assay [2] relates to CAKI-1 renal.
Assay [3] deals with DU-145 prostate.
Assay [4] has as its system HS 578T breast.
In assay [5] the test system is IGROV1 ovarian.
Assay [6] has as its system KM12 colon.
Assay [7] deals with NCI-H226 lung.
Assay [8] relates to PC-3 prostate.
For assay [9], the system named is RXF 393 renal.
For assay [10], the system named is BT-549 breast.
Assay [11] has as its system SW-620 colon.

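Dose response: 5 concentrations. Exposure: 48 h. Format: 96-well plates. Endpoint: linear interpolation; highest concentration if not reached. TGI: concentration producing complete growth inhibition.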

In the case of `CN(CCCNC(=O)c1nn(-c2ccc(Cl)cc2Cl)c2c1ccc1ccccc12)CCCNC(=O)c1nn(-c2ccc(Cl)cc2Cl)c2c1ccc1ccccc12`, the TGI came out at 3.02 µM in assay [1]; 3.05 µM in assay [2]; 3.18 µM in assay [3]; 3.18 µM in assay [4]; 3.2 µM in assay [5]; 3.26 µM in assay [6]. Further, the TGI in assay [7] stood at 4.86 µM; in assay [8], 3.08 µM; in assay [9] it was 3.12 µM.
For `N#CCCN(CCN(C(=O)Nc1ccccc1)c1ccccc1)C(=O)Nc1ccccc1`, the TGI was more than 100 µM in assay [1]; more than 100 µM in assay [10]; more than 63.1 µM in assay [2]; more than 100 µM in assay [3]; more than 100 µM in assay [5]; more than 100 µM in assay [6]. In addition, the TGI in [7] was more than 100 µM; in assay [8] it was more than 100 µM; in assay [9], more than 90.1 µM; in assay [11], more than 100 µM.
Take `O=C1/C(=C/c2ccco2)N=C(c2ccccc2)N1c1cc2cc(Sc3ccccc3)ccc2[nH]1`: the TGI in [1], in [10], in assay [2], in assay [3], in assay [4] and in assay [5] was more than 25 µM in each case. The TGI in assay [8], in assay [9] and in [11] was more than 25 µM in each case.
Regarding `COc1ccc([C@@]23OC[C@@H]4[C@@H](OC[C@@H]42)c2cc(OC)c(OC)cc23)cc1OC`, the TGI in assay [1], in assay [10], in assay [2], in [3], in assay [5] and in [6] was more than 100 µM in each case. Moreover, the TGI in assay [7], in assay [8], in assay [9] and in assay [11] was more than 100 µM each time.
On to `O=c1[nH]n(Cc2ccccn2)c2ccc([N+](=O)[O-])cc12`, for which the TGI in assay [1], in assay [2], in [3], in assay [4], in assay [5] and in assay [6] was more than 100 µM throughout. Moreover, the TGI in [7], in assay [8], in [9] and in assay [11] was more than 100 µM throughout.
Consider `O=C(O)c1ccccc1/C=N/NC1=NCCCCN1`, for which the TGI in assay [1], in assay [10], in assay [4], in [5], in assay [6] and in [7] was more than 100 µM each time. Moreover, the TGI in assay [8], in [9] and in assay [11] was more than 100 µM throughout.
With `O=C(/C=C/c1ccc(O)c(O)c1O)OCCc1ccccc1`, the TGI in assay [1] was more than 100 µM; in assay [2], more than 100 µM; in assay [3] it was more than 100 µM; in assay [4], more than 100 µM; in [5], 84.5 µM; in assay [6], 46.4 µM. The TGI was 97.9 µM in [7], more than 100 µM in assay [8], 98.2 µM in assay [9] and 49.2 µM in assay [11].
As to `COc1ccc(C2SC(C)C(=O)N2c2nc(-c3nc(-c4ccc(Cl)cc4)cs3)cs2)cc1` (stereo unspecified), the TGI in [1], in assay [10], in assay [2], in assay [4], in assay [5] and in assay [6] was more than 100 µM throughout. For the same compound, the TGI in assay [7], in [8], in [9] and in assay [11] was more than 100 µM throughout.
As to `CC(=O)OC1CC[C@]2(C)C3CC[C@@]4(C)C(CCC4[C@H](C)CCCC(C)C)[C@@H]3CCC2(Br)C1` (stereo partly specified), the TGI was 20.2 µM in assay [1]; 25 µM in assay [2]; more than 50 µM in assay [3]; 30.4 µM in [4]; 29.7 µM in assay [5]; more than 50 µM in [6]. Also, the TGI is more than 50 µM in assay [7], 37.7 µM in assay [8], 21.9 µM in [9] and 19.3 µM in assay [11].
On to `Cc1ccc(S(=O)(=O)N2CCCC2C(=O)O[C@H]2CC[C@H]3CC=C[C@H]32)cc1` (stereo partly specified), for which the TGI in assay [1] is more than 31.6 µM; in assay [10], more than 100 µM; in assay [2], more than 100 µM; in [4], more than 100 µM; in assay [5], more than 100 µM; in assay [6] it was more than 100 µM. For the same compound, the TGI in assay [7], in [8] and in assay [11] was more than 100 µM each time.
As for `C=C1CN(Cc2ccccc2)[C@@H]2CCCCC[C@H](C#N)[C@H]12`, the TGI in assay [1], in assay [10], in [2], in [3], in assay [5] and in assay [6] was more than 100 µM each time. Moreover, the TGI in [7], in assay [8], in assay [9] and in [11] was more than 100 µM each time.
`COc1ccc(/C=C2\N=C(NN)N=C2Cl)cc1`: the TGI in [1], in assay [2], in assay [3], in [4], in [5] and in assay [6] was more than 100 µM each time. Also, the TGI in [7], in [8], in assay [9] and in [11] was more than 100 µM throughout.
As to `COc1ccc(Cc2nccc3cc(OC)c(OC)cc23)cc1OC`, the TGI in assay [1], in assay [10], in [2], in assay [3], in assay [4] and in assay [5] was more than 100 µM throughout. Moreover, the TGI in [6], in [7], in [8] and in [11] was more than 100 µM in each case.

The values are drawn from PubChem BioAssay (NCI).
